# Data: patent publication US20060241114A1, “Derivatives of azasugars as anticancer agents” (priority 2003, published 2006)
# Assays:
# [1] = system: DU145 (prostate carcinoma); experiment: In vitro growth inhibition screen (sulphorhodamine B), DU145; type: cell-based, human; settings: DU145 cells, incubated for 48 hours, sulphorhodamine B dye; read-out: GI50 (concentration which inhibits the cell growth by 50%), DU145 Prostate carcinoma
# Method: (§1) Each agent was tested over a broad concentration range (ten-fold dilutions starting from ≧100 μM to 10 nM) against 6 human cancer cell lines which was comprised of different tumor types. These are DU145 (prostate carcinoma), HT29 (colorectal adenocarcinoma), LOX (melanoma), MCF7 (breast adenocarcinoma), MCF7ADR (adriamycin resistant breast adenocarcinoma), and U251 (human glioblastoma). A standard compound doxorubicin was tested in each assay as a positive control. The cells were maintained in growing condition in RPMI 1640 medium containing 10% fetal calf serum and incubated at 37° C. under 5% CO2 atmosphere. All cell lines were inoculated onto a series of standard 96-well microtitre plate on day zero, followed by twenty four-hour incubation in the absence of test compound. The inoculation densities in the screen were as per Monk et al., (1991) J. Natl. Cancer Inst., 83, 757-766. All NCEs were dissolved in DMSO and diluted further in culture medium. An aliquot of each dilution was added to the growing cells in 96 well plates and incubated for 48 hours. After incubation, the assay was terminated by adding 50 μL of trichloroacetic acid (TCA) and incubating at 4° C. for 30 min. The precipitated cells were washed and stained with sulphorhodamine B dye for 30 min and the excess dye was washed off with acetic acid. Adsorbed dye was solubilised in Tris base (alkaline pH) and quantitated by measuring the OD at […] in ELISA READER. GI50 (concentration which inhibits the cell growth by 50%) was calculated according to Boyd and Paull, (1995) Drug Dev. Res., 34, 91-109.
# [2] = system: HT29 (colorectal adenocarcinoma); experiment: In vitro growth inhibition screen (sulphorhodamine B), HT29; type: cell-based, human; settings: HT29 cells, incubated for 48 hours, sulphorhodamine B dye; read-out: GI50 (concentration which inhibits the cell growth by 50%), HT29 Colorectal adenocarcinoma
# Method: as §1
# LOX (melanoma) = experiment: In vitro growth inhibition screen (sulphorhodamine B), LOX; type: cell-based, human; settings: LOX cells, incubated for 48 hours, sulphorhodamine B dye; read-out: GI50 (concentration which inhibits the cell growth by 50%), LOX Melanoma
# Method: as §1
# [3] = system: MCF7 (breast adenocarcinoma); experiment: In vitro growth inhibition screen (sulphorhodamine B), MCF7; type: cell-based, human; settings: MCF7 cells, incubated for 48 hours, sulphorhodamine B dye; read-out: GI50 (concentration which inhibits the cell growth by 50%), MCF7 Breast adenocarcinoma
# Method: as §1
# [4] = system: MCF7ADR (adriamycin resistant breast adenocarcinoma); experiment: In vitro growth inhibition screen (sulphorhodamine B), MCF7ADR; type: cell-based, human; settings: MCF7ADR cells, incubated for 48 hours, sulphorhodamine B dye; read-out: GI50 (concentration which inhibits the cell growth by 50%), MCF7ADR Adriamycin Resistant Breast adenocarcinoma
# Method: as §1
# [5] = system: U251 (human glioblastoma); experiment: In vitro growth inhibition screen (sulphorhodamine B), U251; type: cell-based; settings: U251 cells, incubated for 48 hours, sulphorhodamine B dye; read-out: GI50 (concentration which inhibits the cell growth by 50%), U251 Human glioblastoma astrocytoma
# Method: as §1
GI50 [1],GI50 [2],GI50 (LOX (melanoma)),GI50 [3],GI50 [4],GI50 [5],Compound
50 µM,28.7 µM,35.7 µM,5.6 µM,26 µM,4.2 µM,"CCCN1C(=O)[C@H](OCc2ccccc2)[C@@H](OCc2ccccc2)[C@H](OCc2ccccc2)[C@H]1CNC(=O)NC12CC3CC(CC(C3)C1)C2 [Compound No. 23, 2,3,4-Tri-O-benzyl-6-N-{[1-adamantyl]aminocarbonylamino}-N-propyl-D-gluco-δ-lactam]"
55.3 µM,37.7 µM,87.4 µM,74.8 µM,94.4 µM,62 µM,"CCCN1C(=O)[C@H](OC(C)=O)[C@@H](OC(C)=O)[C@H](OC(C)=O)[C@H]1CNC(=O)Nc1ccc(OC)cc1 [Compound No. 32, 2,3,4-Tri-O-acetyl-6-N-{[4-methoxyphenyl]aminocarbonylamino}-N-propyl-D-gluco-δ-lactam]"
52.7 µM,24.1 µM,25.1 µM,34.1 µM,56.8 µM,47.1 µM,"CCCN1C(=O)[C@H](OC(C)=O)[C@@H](OC(C)=O)[C@H](OC(C)=O)[C@H]1CNC(=O)Nc1ccccc1 [Compound No. 33, 2,3,4-Tri-O-acetyl-6-N-{[phenyl]aminocarbonylamino}-N-propyl-D-gluco-δ-lactam]"
78.2 µM,38.4 µM,130 µM,26.1 µM,63.4 µM,28.3 µM,"CCCN1C(=O)C(OC(C)=O)C(OC(C)=O)C(OC(C)=O)C1CNC(=O)Nc1ccc(F)cc1 [Compound No. 34, 2,3,4-Tri-O-acetyl-6-N-{[4-fluorophenyl]aminocarbonylamino}-N-propyl-D-gluco-δ-lactam]"
14 µM,19.4 µM,8 µM,7.6 µM,9.3 µM,5.8 µM,"CCCN1C(=O)[C@H](O[Si](C)(C)C)[C@@H](O[Si](C)(C)C)[C@H](O[Si](C)(C)C)[C@H]1CNC(=O)Nc1ccccc1 [Compound No. 35, 2,3,4-Tri-O-trimethylsilyl-6-N-{[phenyl]aminocarbonylamino}-N-propyl-D-gluco-δ-lactam]"
16.7 µM,0.8 µM,0.9 µM,0.3 µM,19.1 µM,11.7 µM,CCCN1C[C@H](OCc2ccccc2)[C@@H](OCc2ccccc2)[C@H](OCc2ccccc2)[C@H]1CNC(=O)Nc1ccc(Cl)cc1 [Compound No. 36]
11.1 µM,2.8 µM,5.1 µM,10.3 µM,17.3 µM,15.4 µM,CCCN1C[C@H](OCc2ccccc2)[C@@H](OCc2ccccc2)[C@H](OCc2ccccc2)[C@H]1CNC(=O)Nc1ccc(F)cc1F [Compound No. 37]
72.7 µM,20.6 µM,103 µM,16.1 µM,52.7 µM,31.9 µM,"CCCN1C[C@H](OCc2ccccc2)[C@@H](OCc2ccccc2)[C@H](OCc2ccccc2)[C@H]1CNC(=S)Nc1ccc(Cl)cc1 [Compound No. 39, 2,3,4-Tri-O-benzyl-6-N-{[4-chlorophenyl]aminothiocarbonylamino}-1,5-dideoxy-1,5-imino-N-propyl glucitol]"
35.7 µM,2 µM,27.2 µM,9.7 µM,18.4 µM,20.1 µM,"CCCN1C[C@H](OCc2ccccc2)[C@@H](OCc2ccccc2)[C@H](OCc2ccccc2)[C@H]1CNC(=O)Nc1ccc(F)cc1 [Compound No. 40, 2,3,4-Tri-O-benzyl-6-N-{[4-fluorophenyl]aminocarbonylamino}-1,5-dideoxy-1,5-imino-N-propyl glucitol]"
175 µM,103 µM,> 373 µM,232 µM,> 373 µM,> 373 µM,"C=CCN1C(=O)[C@H](OCc2ccccc2)[C@@H](OCc2ccccc2)[C@H](OCc2ccccc2)[C@H]1COC(=S)Nc1ccc2ccccc2c1 [Compound No. 42, N-Allyl-2,3,4-Tri-O-benzyl-6-(2-naphthylithiocarbamate)-D-gluco-δ-lactam]"
88.5 µM,29.2 µM,8.7 µM,2.3 µM,7.5 µM,29.8 µM,"C=CCN1C[C@H](OCc2ccccc2)[C@@H](OCc2ccccc2)[C@H](OCc2ccccc2)[C@H]1COC(=O)Nc1ccc(Cl)cc1 [Compound No. 44, N-Allyl-2,3,4-tri-O-benzyl-6-{p-chlorophenylcarbamate}-1,5-dideoxy-1,5-imino glucitol]"

Compound,GI50 [1],GI50 [2],GI50 (LOX (melanoma)),GI50 [3],GI50 [4],GI50 [5]
"CCCN1C(=O)[C@H](O)[C@@H](O)[C@H](O)[C@H]1CNC(=O)Nc1ccccc1 [Compound No. 24, N-Propyl-6-N-{[phenyl]aminocarbonylamino}-D-gluco-δ-lactam]",296 µM,213 µM,169 µM,157 µM,262 µM,231 µM
"CCCN1C(=O)[C@H](O)[C@@H](O)[C@H](O)[C@H]1CNC(=O)Nc1ccccc1C(F)(F)F [Compound No. 25, 6-N-{[2-Trifluoromethylphenyl]aminocarbonylamino}-N-propyl-D-gluco-δ-lactam]",386 µM,311 µM,94.6 µM,190 µM,228 µM,278 µM
"CCCN1C(=O)[C@H](O)[C@@H](O)[C@H](O)[C@H]1CNC(=O)Nc1ccc(C)cc1 [Compound No. 26, 6-N-{[p-Tolyl]aminocarbonylamino}-N-propyl-D-gluco-δ-lactam]",278 µM,209 µM,116 µM,136 µM,235 µM,520 µM
"CCCN1C(=O)[C@H](O)[C@@H](O)[C@H](O)[C@H]1CNC(=O)Nc1ccc(OC)cc1 [Compound No. 27, 6-N-{[p-Methoxyphenyl]aminocarbonylamino}-N-propyl-D-gluco-δ-lactam]",413 µM,232 µM,193 µM,214 µM,481 µM,323 µM
"CCCN1C(=O)[C@H](O)[C@@H](O)[C@H](O)[C@H]1CNC(=O)Nc1ccc(N)cc1 [Compound No. 28, 6-N-{[p-Aminophenyl]aminocarbonylamino}-N-propyl-D-gluco-δ-lactam]",288 µM,242 µM,136 µM,106 µM,194 µM,557 µM
"CCCN1C(=O)[C@H](O)[C@@H](O)[C@H](O)[C@H]1CNC(=O)Nc1ccc(F)cc1 [Compound No. 29, 6-N-{[4-Fluorophenyl]aminocarbonylamino}-N-propyl-D-gluco-δ-lactam]",280 µM,58.6 µM,290 µM,85.8 µM,165 µM,87 µM
"CCCN1C(=O)C(O)C(O)C(O)C1CNC(=O)NC(C)C [Compound No. 30, 6-N-{[Isopropyl]aminocarbonylamino}-N-propyl-D-gluco-δ-lactam]",119 µM,42.6 µM,226 µM,180 µM,209 µM,100 µM
"CCCN1C(=O)[C@H](O)[C@@H](O)[C@H](O)[C@H]1CNC(=O)Nc1ccc(C(F)(F)F)cc1 [Compound No. 31, 6-N-{[4-Trifluoromethylphenyl]aminocarbonylamino}-N-propyl-D-gluco-δ-lactam]",113 µM,79.5 µM,132 µM,139 µM,131 µM,82.2 µM
"C=CCN1C(=O)C(OCc2ccccc2)C(OCc2ccccc2)C(OCc2ccccc2)C1COC(=O)Nc1ccc(Cl)cc1 [Compound No. 41, N-Allyl-6-O-(4-chlorophenylcarbamate)-2,3,4-tri-O-benzyl-D-gluco-δ-lactam]",142 µM,71.2 µM,> 664 µM,109 µM,> 664 µM,> 664 µM
"CCCN1C(=O)[C@H](O)[C@@H](O)[C@H](O)[C@H]1COC(=O)Nc1ccccc1 [Compound No. 43, N-Propyl-6-(phenylcarbamate)-N-propyl-D-gluco-δ-lactam]",226 µM,208 µM,161 µM,115 µM,280 µM,235 µM
